Entries after “also recorded” stand apart in the source; their conditions may differ.

What all share (type): biochemical
For experiment [1], the target named is T1, 11β-HSD2 (Rattus norvegicus, UniProt P50233).
T1 construct: from tissue; host or cells: rat kidney microsomes prepared in house
T1 sequence (P50233 1-400): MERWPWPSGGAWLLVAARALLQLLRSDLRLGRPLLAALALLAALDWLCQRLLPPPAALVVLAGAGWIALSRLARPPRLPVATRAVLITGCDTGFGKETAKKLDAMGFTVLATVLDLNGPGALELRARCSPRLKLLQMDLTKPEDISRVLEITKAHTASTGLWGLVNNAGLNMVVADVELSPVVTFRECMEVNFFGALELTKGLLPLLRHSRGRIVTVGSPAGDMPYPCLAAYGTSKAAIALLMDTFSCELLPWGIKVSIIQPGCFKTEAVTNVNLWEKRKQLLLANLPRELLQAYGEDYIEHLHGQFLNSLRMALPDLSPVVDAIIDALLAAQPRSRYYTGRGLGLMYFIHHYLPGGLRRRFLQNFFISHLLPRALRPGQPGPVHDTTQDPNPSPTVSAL
In words: 11β-HSD2 activity in rat kidney microsomes. To be noted: 100 μM. As for the experimental part:
(§1) Preparation of Rat and Mouse Liver and Kidney Microsomes
(§2) The liver and kidney microsomes were prepared as previously described ([Guo et al., 2012]). Briefly, the tissue was homogenized in […] phosphate buffered saline (PBS) containing 0.25 M sucrose, and the nuclei and large cell debris were removed by centrifugation at 1500 g for 10 min. The supernatant was transferred to a tube and the mitochondria were removed by centrifugation at 10, 000 × g for 30 min. The supernatant was transferred to an ultracentrifuge tube and centrifuged twice at 105,000 × g, the resulting microsomal precipitate was collected. The protein content was measured by the BCA kit according to the manufacturer’s instruction. The protein concentration was adjusted to 20 mg/ml. These proteins were used to measure 11β-HSD1 and 11β-HSD2 activities.
(§3) Measurement of 11β-HSD2 Activity in Rat, Mouse, and Human Kidney Microsomes
(§4) The 11β-HSD2 assay was based on rat, mouse, and human kidney microsomes, as previously described ([Ge et al., 2005]). In brief, the 11β-HSD2 activity assay tube contained 25 nM substrate (cortisol for humans, CORT for rats and mice). […] The percentage conversion of cortisol to cortisone (humans) or CORT to 11DHC (rats and mice) was calculated by dividing the radioactive count of an 11keto-steroid product by the total count associated with both substrate and product.

Experiment [2] addresses T2, 11β-HSD1 (Rattus norvegicus, UniProt P16232).
T2 construct: from tissue; host or cells: liver microsomes of male Sprague Dawley rats, prepared in house
Briefly: 11β-HSD1 reductive activity in rat liver microsomes. The procedure:
as §1
as §2, with “activities. […]” for “activities.”
(§5) The reductive activity of 11β-HSD1 in rat, mouse, and human liver microsomes was measured as previously described ([Ge et al., 2005]). […] 11β-HSD1 activity was measured using 11-DHC or cortisone as a substrate. […] The inhibitory ability of the chemical relative to the control (DMSO solvent) was measured. […] The steroids in chloroform and methanol (90:10, v/v) were chromatographically separated on a thin layer plate, and radioactivity was measured using a scanning radiometer (System AR2000, Bioscan Inc., Washington, DC, United States). […]
A general note: Microsomes from liver hold many membrane-bound enzymes, among them those of drug oxidation.

Experiment [3] has as its target T3, 11β-HSD1 (Homo sapiens, UniProt P28845).
T3 construct: purchased Gentest (Woburn, MA); host or cells: human liver microsomes (tissue)
In words: 11β-HSD1 reductive activity in human liver microsomes. As for the experimental part:
Determination of 11β-HSD1 in Rat, Mouse, and Human Liver Microsomes
The reductive activity of 11β-HSD1 in rat, mouse, and human liver microsomes was measured as previously described ([Ge et al., 2005]). In short, the 11β-HSD1 activity assay tube contained 25 nM substrate, 11DHC (for rats or mice) or cortisone (for humans), spiked with 60,000 dpm of each 3H-steroid. 11β-HSD1 activity was measured using 11-DHC or cortisone as a substrate. A 25 nM steroid substrate is used because the concentration is within the physiological concentration range. Rat (10 μg), mouse (10 μg) and human (4 μg) liver microsomes were incubated with 11-ketosteroids, 0.2 mM NADPH, and various concentrations (10^−10–10^−5 M) of drug candidates at 37 °C for 60–90 min. The inhibitory ability of the chemical relative to the control (DMSO solvent) was measured. […] The reaction was stopped by adding 10 µL of 1 mM glycyrrhetinic acid and 1 ml of ice-cold ether. […] The steroids in chloroform and methanol (90:10, v/v) were chromatographically separated on a thin layer plate, and radioactivity was measured using a scanning radiometer (System AR2000, Bioscan Inc., Washington, DC, United States). The percentage of 11DHC being converted to CORT or cortisone being converted to cortisol can be calculated by dividing the radioactivity count of 11-OH-steroids by the total count. […]

Experiment [4] has as its target T4, 11β-HSD2 (Mus musculus, UniProt P51661).
T4 construct: from tissue; host or cells: mouse kidney microsomes prepared in house
T4 sequence (P51661 1-386): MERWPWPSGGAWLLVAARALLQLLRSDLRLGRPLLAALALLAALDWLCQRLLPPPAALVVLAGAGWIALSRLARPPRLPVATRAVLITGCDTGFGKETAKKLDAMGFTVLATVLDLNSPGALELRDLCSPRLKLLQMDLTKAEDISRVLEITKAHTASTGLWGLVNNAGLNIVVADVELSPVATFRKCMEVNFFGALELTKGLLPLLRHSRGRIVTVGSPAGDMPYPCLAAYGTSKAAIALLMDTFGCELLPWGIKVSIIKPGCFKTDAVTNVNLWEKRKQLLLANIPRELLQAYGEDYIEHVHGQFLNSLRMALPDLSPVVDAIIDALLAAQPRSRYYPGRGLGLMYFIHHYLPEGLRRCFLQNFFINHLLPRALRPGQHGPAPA
In words: 11β-HSD2 activity in mouse kidney microsomes. Particulars: 100 μM. As for the experimental part: as §1, §2, §3, §4

The target in experiment [5] is T5, 11β-HSD1 (Mus musculus, UniProt P50172).
T5 construct: from tissue; host or cells: mouse liver microsomes prepared in house (probably from Kunming mice)
T5 sequence (P50172 whole entry): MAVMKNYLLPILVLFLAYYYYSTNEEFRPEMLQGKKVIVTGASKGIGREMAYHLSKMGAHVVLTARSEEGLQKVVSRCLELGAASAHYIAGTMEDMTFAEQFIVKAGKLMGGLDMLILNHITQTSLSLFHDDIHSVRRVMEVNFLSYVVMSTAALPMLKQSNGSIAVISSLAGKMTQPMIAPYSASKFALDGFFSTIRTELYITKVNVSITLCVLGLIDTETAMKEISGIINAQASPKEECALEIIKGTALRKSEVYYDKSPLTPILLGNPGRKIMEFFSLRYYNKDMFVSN
In words: 11β-HSD1 reductive activity in mouse liver microsomes. The procedure:
as §1
as §2, with “activities. […]” for “activities.”
as §5

T3 sequence (P28845 whole entry): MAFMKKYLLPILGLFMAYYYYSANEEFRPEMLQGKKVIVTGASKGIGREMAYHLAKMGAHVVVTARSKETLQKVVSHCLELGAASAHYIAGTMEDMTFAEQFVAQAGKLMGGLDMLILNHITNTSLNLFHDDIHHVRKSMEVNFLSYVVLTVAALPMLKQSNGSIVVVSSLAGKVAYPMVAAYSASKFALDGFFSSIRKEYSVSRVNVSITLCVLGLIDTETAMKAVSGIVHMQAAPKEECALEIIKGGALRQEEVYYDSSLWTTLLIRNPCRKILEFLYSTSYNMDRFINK
T2 sequence (P16232 whole entry): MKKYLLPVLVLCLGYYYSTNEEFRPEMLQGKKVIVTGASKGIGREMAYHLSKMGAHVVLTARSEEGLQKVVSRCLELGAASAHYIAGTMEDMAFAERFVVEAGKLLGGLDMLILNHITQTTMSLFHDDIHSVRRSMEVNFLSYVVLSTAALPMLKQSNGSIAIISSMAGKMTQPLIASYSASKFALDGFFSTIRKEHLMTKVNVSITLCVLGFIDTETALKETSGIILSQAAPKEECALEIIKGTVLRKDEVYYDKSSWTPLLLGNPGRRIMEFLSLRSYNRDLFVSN

As a reminder, the inhibition is the percentage by which the read-out fell short of the control. One may read the IC50 as the midpoint of a concentration-inhibition curve. The low end stands for inhibition by little substance, the high end for a need for much substance. Take `O=C1/C(=C/c2c(F)cccc2F)CC/C1=C\c1c(F)cccc1F` [WZS08, (2E,5E)-2,5-bis(2,6-difluorobenzylidene) Cyclopentanone]: the “effect on 11β-HSD2 activity, rat” value in experiment [1] is on record as “did not affect; also recorded: almost no effect”. In addition, the inhibition at 100 µM in experiment [2] (100 μM, initial screening, read-out: 11β-HSD1 inhibition, rat enzyme) is 93.9 ± 0.42%; in experiment [3] (100 μM, initial screening, read-out: 11β-HSD1 inhibition, human enzyme), 85.4 ± 1.67%; in experiment [5] (100 μM, initial screening, read-out: 11β-HSD1 inhibition, mouse enzyme), 94.5 ± 0.97%. Further, the IC50 in experiment [2] (rat liver microsomes, 25 nM 11DHC, NADPH) worked out at 378 nM; in experiment [3] (human liver microsomes, 25 nM cortisone, NADPH), 621 nM; in experiment [5] (mouse liver microsomes, 25 nM 11DHC, NADPH), 244 nM. The “effect on 11β-HSD2 activity, mouse” value in experiment [4] is given as “did not affect; also recorded: almost no effect”.

The record behind these values is paper PMC8072159, “5-Bis-(2,6-difluoro-benzylidene) Cyclopentanone Acts as a Selective 11β-Hydroxysteroid Dehydrogenase one Inhibitor to Treat Diet-Induced Nonalcoholic Fatty Liver Disease in Mice” (Frontiers in Pharmacology, 2021).
